Consider 21 compounds from patent US20220282217A1, “COMPOSITIONS AND METHODS FOR PREPARING T CELL COMPOSITIONS AND USES THEREOF” (priority 2019, published 2022).

The target in test [1] is HLA-B07.02 (Homo sapiens, UniProt P01889). In words: Class I MHC peptide binding affinity (displacement of radiolabeled reference peptide).
Test [2] concerns the target T1, HLA-A02.01 (Homo sapiens, UniProt P04439, D140Y/D185E/D98H/E176V/E277Q/G131W/G231S/I119V/I121R/I166T/I218V/N151K/N90K/P208A/P217A/Q86G/Q94H/R138H/R169H).
T1 construct: made in house; host or cells: E. coli
In words: Class I MHC peptide binding stability (pMHC-I dissociation, 125I-labeled light chain). To be noted: for Stability (T1/2 (h)): allele A02.01.

For test [3], the target named is HLA-A02.01 (Homo sapiens, UniProt P04439, D140Y/D185E/D98H/E176V/E277Q/G131W/G231S/I119V/I121R/I166T/I218V/L300P/L318F/N151K/N90K/P208A/P217A/Q86G/Q94H/R138H/R169H/T345S). Kind of test: Class I MHC peptide binding affinity (displacement of radiolabeled reference peptide). The method in brief:
(§1)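 Peptides compete against a prebound radiolabeled reference on MHCI over 2 days at several concentrations.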

Test [4] concerns the target HLA-A01.01 (Homo sapiens, UniProt P04439, A114D/A174V/A182V/D101N/D185E/E176A/E190D/L180R/Q94H/R68K/S129P/T187R/V100A/V91M/W191G). The description is as above. The method in brief:
as §1

The mark [5] stands for this setting: allele A02.01, read-out: Observed Affinity (IC50, (nM)).
The mark [6] stands for this setting: allele A01.01, read-out: Observed Affinity (IC50, (nM)).
The mark [7] stands for this setting: Observed Affinity (IC50, (nM)), allele A01.01.
The mark [8] stands for this setting: Allele B07.02, read-out: Observed Affinity (IC50, (nM)).

Where two headings read alike, the source gives them in different places. Where a SMILES comes first, the peptide text is derived from it.

Take `CSCC[C@H](NC(=O)[C@H](CC(C)C)NC(=O)[C@H](CCC(N)=O)NC(=O)[C@@H](N)CCSC)C(=O)N1CCC[C@H]1C(=O)N[C@@H](Cc1ccccc1)C(=O)NCC(=O)N[C@@H](CS)C(=O)N[C@@H](CC(C)C)C(=O)O`: the Kd was found to be 1590 nM in test [1] (EGFR T790M peptides, HLA allele B07.02) and 116 nM in test [3] (EGFR T790M peptides, HLA allele A02.01, read-out: Affinity). Also, the “Stability (half-life (hr.))” value in test [2] (EGFR T790M peptides, HLA allele A02.01) turned out to be 0.3683 h. Besides, the “Stability (T1/2 (h))” value in test [2] is 0.4 h. In test [3] (setting [5]), the IC50 is 166 nM.

Regarding `CSCC[C@H](NC(=O)[C@H](CCC(=O)O)NC(=O)[C@H](CCCNC(=N)N)NC(=O)[C@H](CC(C)C)NC(=O)[C@H](Cc1ccc(O)cc1)NC(=O)[C@H](CC(N)=O)NC(=O)[C@H](CC(C)C)NC(=O)[C@H](CC(C)C)NC(=O)[C@@H](N)CO)C(=O)O`, the IC50 in test [1] (BTK C481S peptide, HLA Allele B07.02, read-out: Affinity) worked out at 866 nM; in test [3] (BTK C481S peptide, HLA Allele A02.01, read-out: Affinity), 67.7 nM; in test [3] (setting [5]) it was 87 nM. In addition, the “Stability (half-life (hr.))” value in test [2] (BTK C481S peptide, HLA Allele A02.01) is 3.044 h. For the same compound, the “Stability (T1/2 (h))” value in test [2] is given as 3 h.

As for `CC(C)[C@H](NC(=O)[C@H](CCC(=O)O)NC(=O)[C@H](CC(N)=O)NC(=O)[C@H](CO)NC(=O)CN)C(=O)N[C@H](C(=O)N[C@H](C(=O)N[C@@H](CCCNC(=N)N)C(=O)N[C@@H](Cc1ccc(O)cc1)C(=O)O)[C@@H](C)O)[C@@H](C)O` (H-GSNEVTTRY-OH; N-terminus and C-terminus assumed), in test [4] (setting [6]), the IC50 was 606 nM.

Regarding `CC[C@H](C)[C@H](N)C(=O)N[C@@H](CC(C)C)C(=O)N[C@@H](CC(=O)O)C(=O)N[C@H](C(=O)N[C@@H](C)C(=O)NCC(=O)N[C@@H](Cc1c[nH]cn1)C(=O)N[C@@H](CCC(=O)O)C(=O)N[C@@H](CCC(=O)O)C(=O)N[C@@H](Cc1ccc(O)cc1)C(=O)O)[C@@H](C)O` (H-ILDTAGHEEY-OH; N-terminus and C-terminus assumed), the IC50 in test [4] (setting [7]) stood at 64.2 nM.

Compound `CC[C@H](C)[C@H](N)C(=O)N[C@@H](CC(C)C)C(=O)N[C@@H](CC(=O)O)C(=O)N[C@H](C(=O)N[C@@H](C)C(=O)NCC(=O)N[C@@H](CC(C)C)C(=O)N[C@@H](CCC(=O)O)C(=O)N[C@@H](CCC(=O)O)C(=O)N[C@@H](Cc1ccc(O)cc1)C(=O)O)[C@@H](C)O` (H-ILDTAGLEEY-OH; N-terminus and C-terminus assumed) gave an IC50 in test [4] (setting [7]) of 8.6 nM.

In test [4] (setting [7]), `CC[C@H](C)[C@H](N)C(=O)N[C@@H](CC(C)C)C(=O)N[C@@H](CC(=O)O)C(=O)N[C@H](C(=O)N[C@@H](C)C(=O)NCC(=O)N[C@@H](CCCNC(=N)N)C(=O)N[C@@H](CCC(=O)O)C(=O)N[C@@H](CCC(=O)O)C(=O)N[C@@H](Cc1ccc(O)cc1)C(=O)O)[C@@H](C)O` (H-ILDTAGREEY-OH; N-terminus and C-terminus assumed) gave an IC50 of 7 nM.

Turning to `CC(C)C[C@H](NC(=O)[C@H](CCC(N)=O)NC(=O)[C@H](CC(C)C)NC(=O)[C@H](Cc1c[nH]cn1)NC(=O)[C@H](CC(N)=O)NC(=O)[C@H](CCC(N)=O)NC(=O)[C@H](CCCNC(=N)N)NC(=O)[C@H](CO)NC(=O)[C@@H](N)CCCCN)C(=O)O` (H-KSRQNHLQL-OH; N-terminus and C-terminus assumed), the IC50 in test [1] (setting [8]) stood at 78 nM.

As for `CC(C)C[C@H](NC(=O)[C@H](Cc1ccccc1)NC(=O)[C@H](CO)NC(=O)[C@@H](N)CC(C)C)C(=O)N[C@@H](CO)C(=O)N[C@@H](CO)C(=O)N[C@@H](Cc1c[nH]c2ccccc12)C(=O)N[C@@H](CC(=O)O)C(=O)N[C@@H](Cc1ccc(O)cc1)C(=O)O` (H-LSFLSSWDY-OH; N-terminus and C-terminus assumed), the IC50 in test [4] (setting [6]) is 52.9 nM.

The compound `CC[C@H](C)[C@H](NC(=O)[C@H](CCCCN)NC(=O)[C@H](Cc1ccc(O)cc1)NC(=O)[C@@H](NC(=O)[C@@H](NC(=O)[C@H](CC(=O)O)NC(=O)[C@H](CO)NC(=O)[C@@H](N)CCSC)[C@@H](C)O)[C@@H](C)O)C(=O)N[C@@H](Cc1ccc(O)cc1)C(=O)O` (H-MSDTTYKIY-OH; N-terminus and C-terminus assumed) showed an IC50 in test [4] of 10.2 nM.

Consider `C[C@H](NC(=O)[C@H](C)NC(=O)[C@H](CCCNC(=N)N)NC(=O)[C@@H]1CCCN1C(=O)[C@@H]1CCCN1C(=O)[C@H](CCCNC(=N)N)NC(=O)[C@@H]1CCCN1C(=O)[C@@H]1CCCN1)C(=O)N[C@@H](CS)C(=O)O` (H-PPRPPRAAC-OH; N-terminus and C-terminus assumed), for which the IC50 in test [1] (setting [8]) is 32.8 nM.

As for `CC(C)C[C@H](NC(=O)[C@@H]1CCCN1C(=O)[C@@H]1CCCN1C(=O)[C@@H](NC(=O)[C@@H](NC(=O)[C@H](Cc1c[nH]c2ccccc12)NC(=O)[C@H](CC(C)C)NC(=O)[C@@H](NC(=O)[C@@H]1CCCN1C(=O)[C@@H](N)CCC(N)=O)C(C)C)[C@@H](C)O)[C@@H](C)O)C(=O)O` (H-QPVLWTTPPL-OH; N-terminus and C-terminus assumed), in test [1] (setting [8]), the IC50 stood at 109 nM.

In the case of `CC(C)C[C@H](NC(=O)[C@@H]1CCCN1C(=O)[C@@H](N)CCCNC(=N)N)C(=O)N[C@@H](CCC(N)=O)C(=O)N[C@H](C(=O)N[C@@H](Cc1c[nH]cn1)C(=O)N[C@H](C(=O)N[C@@H](CC(C)C)C(=O)N1CCC[C@H]1C(=O)N[C@@H](CCC(=O)O)C(=O)O)C(C)C)[C@@H](C)O` (H-RPLQTHVLPE-OH; N-terminus and C-terminus assumed), the IC50 in test [1] (setting [8]) worked out at 2530 nM.

`CC(C)C[C@H](NC(=O)[C@H](CC(C)C)NC(=O)[C@H](Cc1c[nH]cn1)NC(=O)CNC(=O)[C@H](CCC(N)=O)NC(=O)[C@H](CC(N)=O)NC(=O)[C@H](CCC(N)=O)NC(=O)[C@@H](NC(=O)[C@@H](N)CCCNC(=N)N)C(C)C)C(=O)O` (H-RVQNQGHLL-OH; N-terminus and C-terminus assumed): the IC50 in test [1] (setting [8]) was 826 nM.

As for `CC(C)[C@H](NC(=O)[C@H](CCC(=O)O)NC(=O)[C@H](CC(N)=O)NC(=O)[C@H](CO)NC(=O)CNC(=O)[C@@H](N)[C@@H](C)O)C(=O)N[C@H](C(=O)N[C@H](C(=O)N[C@@H](CCCNC(=N)N)C(=O)N[C@@H](Cc1ccc(O)cc1)C(=O)O)[C@@H](C)O)[C@@H](C)O` (H-TGSNEVTTRY-OH; N-terminus and C-terminus assumed), in test [4] (setting [6]), the IC50 was 15500 nM.

Consider `C[C@H](NC(=O)[C@H](CC(N)=O)NC(=O)[C@@H](NC(=O)[C@@H](N)[C@@H](C)O)[C@@H](C)O)C(=O)N[C@@H](Cc1ccccc1)C(=O)N[C@@H](CO)C(=O)NCC(=O)N[C@@H](CCC(=O)O)C(=O)N[C@@H](Cc1ccc(O)cc1)C(=O)O` (H-TTNAFSGEY-OH; N-terminus and C-terminus assumed), for which the IC50 in test [4] (setting [6]) amounted to 4.4 nM.

As for `CC[C@H](C)[C@H](NC(=O)[C@H](CCCCN)NC(=O)[C@H](Cc1ccc(O)cc1)NC(=O)[C@@H](NC(=O)[C@@H](NC(=O)[C@H](CC(=O)O)NC(=O)[C@H](CO)NC(=O)[C@H](CCSC)NC(=O)[C@@H](N)C(C)C)[C@@H](C)O)[C@@H](C)O)C(=O)N[C@@H](Cc1ccc(O)cc1)C(=O)O` (H-VMSDTTYKIY-OH; N-terminus and C-terminus assumed), the IC50 in test [4] was determined as 376 nM.

In the case of `CC(C)C[C@H](NC(=O)[C@H](CC(=O)O)NC(=O)[C@H](Cc1ccccc1)NC(=O)[C@@H]1CCCN1C(=O)[C@@H](NC(=O)[C@H](C)NC(=O)[C@@H]1CCCN1C(=O)[C@@H](N)C(C)C)C(C)C)C(=O)N[C@@H](Cc1c[nH]cn1)C(=O)N[C@@H](Cc1ccccc1)C(=O)O` (H-VPAVPFDLHF-OH; N-terminus and C-terminus assumed), the IC50 in test [1] (setting [8]) was 2110 nM.

Consider `CSCC[C@H](NC(=O)[C@H](CCC(=O)O)NC(=O)[C@H](CC(C)C)NC(=O)[C@H](CC(C)C)NC(=O)[C@H](CC(C)C)NC(=O)CNC(=O)[C@H](Cc1ccc(O)cc1)NC(=O)[C@H](CC(C)C)NC(=O)[C@@H]1CCCN1C(=O)[C@@H](N)C(C)C)C(=O)O` (H-VPLYGLLLEM-OH; N-terminus and C-terminus assumed), for which the IC50 in test [1] (setting [8]) is 27.9 nM.

On to `CC(C)C[C@H](NC(=O)CNC(=O)[C@H](CO)NC(=O)[C@H](CC(=O)O)NC(=O)[C@H](CCCCN)NC(=O)[C@H](CO)NC(=O)[C@H](Cc1ccc(O)cc1)NC(=O)[C@H](C)NC(=O)[C@@H]1CCCN1C(=O)[C@@H](N)Cc1ccc(O)cc1)C(=O)O` (H-YPAYSKDSGL-OH; N-terminus and C-terminus assumed), for which the IC50 in test [1] (setting [8]) turned out to be 79.5 nM.

`C[C@H](NC(=O)[C@H](CC(N)=O)NC(=O)[C@@H](NC(=O)[C@@H](NC(=O)[C@@H](N)Cc1ccc(O)cc1)[C@@H](C)O)[C@@H](C)O)C(=O)N[C@@H](Cc1ccccc1)C(=O)N[C@@H](CO)C(=O)NCC(=O)N[C@@H](CCC(=O)O)C(=O)N[C@@H](Cc1ccc(O)cc1)C(=O)O` (H-YTTNAFSGEY-OH; N-terminus and C-terminus assumed): the IC50 in test [4] (setting [6]) was determined as 10.5 nM.

Turning to `CC(C)C[C@H](NC(=O)[C@H](C)NC(=O)[C@H](CC(C)C)NC(=O)[C@H](Cc1c[nH]cn1)NC(=O)[C@@H]1CCCN1C(=O)[C@H](CCC(=O)O)NC(=O)[C@@H]1CCCN1C(=O)[C@H](CC(C)C)NC(=O)[C@@H](NC(=O)[C@@H](N)Cc1c[nH]cn1)C(C)C)C(=O)O` [HVLPEPHLAL] (H-HVLPEPHLAL-OH; N-terminus and C-terminus assumed), the IC50 in test [1] (setting [8]) is 1330 nM.
